Blank lines part the entries; values can stand above or below the compound they belong to.
Assays:
[1] = system: Pin1 acetylation; assay: Pin1 acetylation in cells (Co-IP with anti-Flag antibody, immunoblotting with anti-acetyl lysine antibody); assay type: cell-based
From the text: FIG. 1 depicts HTS results for glucose starvation induced Pin1 deacetylation in cells 100. Different stress tests, such as heat shock, ultraviolet radiation, and glucose starvation (Glu^−), may produce an extracellular stimulus that could transform one or more cellular responses related to cell growth, differentiation, activation of transcript factors, glucose metabolism, control of proteins synthesis, and regulation of cell cycle. Among these stresses testes, glucose starvation (Glu^−), may reduce Pin1 acetylation without affecting its protein expression (FIG. 1 A). […] Protein acetylation may be catalytically modulated by a particular pair of histone acetyl transferase (HAT) and histone deacetylase (HDAC) (Yang and Seto, 2007). To identify the HAT and HDAC that modulates Pin1 acetylation, Flag-tagged Pin1 was expressed with several HATs including p300, CBP or GCN5 in cells, followed by co-immunoprecipitation (Co-IP) with anti-Flag antibody and immunoblotting with anti-acetyl lysine antibody. […] Moreover, Pin1 Co-IPed with p300, supporting that p300 is a HAT for Pin1. For the corresponding HDAC, various HDAC inhibitors targeting different HDAC categories were used, including Trichostatin A (TSA) and MS-275 for class I and II HDACs as well as Nicotinamide (NAM) and Splitomicin (Splito) for class III HDACs.

[2] = system: Pin1 and SIRT1 interaction; assay: Pin1 and SIRT1 interaction by Co-IP and co-immunostaining; assay type: cell-based; details: Co-IP (FIG. 1 K) and co-immunostaining (FIG. 1 L)
From the text: Out of the seven Sirtuin family members, SIRT1, 2, 6, and 7 associated with Pin1 as shown by Co-IP and GST pull-down (FIG. 1 F). However, only SIRT1 reduced Pin1 acetylation (FIG. 1 G). Furthermore, overexpression of wild-type (WT), but not its catalytic dead (H363Y) mutant, induced Pin1 deacetylation in cells (FIG. 1 H). […] In addition, since other studies have shown that glucose starvation activates SIRT1 activity, an investigation was made to know whether glucose starvation-induced Pin1 deacetylation is mediated by SIRT1.

[3] = HDAC inhibitors in cells, FIG. 1 E

SMILES: NC(=O)c1cccnc1 [NAM, Nicotinamide]
effect on Pin1 acetylation [1, 3]: increased Pin1 acetylation

SMILES: CCCCCCCCCCCCCCCc1cccc(O)c1C(=O)O [Anacardic acid]
effect on p300-increased Pin1 acetylation (Acetyl-Pin1) ([1]; cells overexpressing p300 with Flag-Pin1, FIG. 1 D): reversed

SMILES: O=C1CCc2c(ccc3ccccc23)O1 [Splito, Splitomicin]
effect on Pin1 acetylation [1, 3]: increased Pin1 acetylation

Pin1 binding with SIRT1 [2]: increased binding with SIRT1
SMILES: O=CC[C@@H](O)[C@H](O)[C@H](O)CO [2-DG, 2-deoxyglucose]
effect on Pin1 acetylation ([1]; mimicking glucose starvation, FIG. 1 B): reduction in Pin1 acetylation in a time- or dose-dependent manner

From patent publication US10351914B2, “Biomarkers for Pin1-associated disorders” (Beth Israel Deaconess Medical Center, Inc., priority 2014, dated 2019)
